# Reference: US20090124579A1, “Systems and Methods For Determination of Compounds for Stimulation or Inhibition of Neocalcification” (UNIVERSITY OF SOUTH CAROLINA, priority 2007, published 2009)
# B1: Anx-A5: avian annexin 5 (avian cartilage) (protein, UniProt P17153 1-321, looked up)
# Annexin A5: MAKYTRGTVTAFSPFDARADAEALRKAMKGMGTDEETILKILTSRNNAQRQEIASAFKTLFGRDLVDDLKSELTGKFETLMVSLMRPARIFDAHALKHAIKGAGTNEKVLTEILASRTPAEVQNIKQVYMQEYEANLEDKITGETSGHFQRLLVVLLQANRDPDGRVDEALVEKDAQVLFRAGELKWGTDEETFITILGTRSVSHLRRVFDKYMTISGFQIEETIDRETSGDLEKLLLAVVKCIRSVPAYFAETLYYSMKGAGTDDDTLIRVMVSRSEIDLLDIRHEFRKNFAKSLYQMIQKDTSGDYRKALLLLCGGDDE
# What was measured:
# matrix vesicles (MV) = experiment: Mineralization of matrix vesicles (MV) incubated in synthetic cartilage lymph (SCL), microplate-based biomineralization assay; format: biochemical, chicken
# Method: Zn^2+ causes Anx-5 to bind to acidic phospholipids with even higher affinity than does Ca^2+; however, its effect is very different.
# (§1) Mineral formation was measured by incubating MVs (40 μg protein/ml) or complex (60 μg/ml) in synthetic cartilage lymph and assayed by a microplate-based biomineralization modeling system and assay as described herein. MVs were isolated from chicken GP cartilage. The PS.Ca.Pi complex was synthesized from emulsions of PS prepared by sonication in a synthetic intracellular phosphate buffer. Where indicated, pure native placental human annexin 5 (Anx-H5) was added.
# (§2) Incubation was in pH 7.5 SCL at 37° C., which follows a characteristic sigmoid pattern in which a definable lag period precedes discernible mineral formation. There then follows a period of rapid mineral formation, a transient period when the rate declines, and an extended period at a progressively slower rate.
# [1] = test system: PS.PE.Ca.Pi and PS.Ca.Pi complexes; experiment: Mineral formation by synthetic PS and PE containing Ca.Pi complexes in SCL; format: biochemical
# Method: FIG. 15 illustrates the effect of Anx-H5 on mineral formation by synthetic PS and PE containing Ca.Pi complexes as determined through in vitro modeling of the system. Mineralization was measured by incubating the various complexes as shown (about 50 μg/ml) in SCL using a microplate-based biomineralization assay system. The complexes were prepared as described above in Example 3. Emulsions of PS or PS.PE (1:1) were generated by sonication to generate approximately 60 nm vesicles. Anx-H5 was added before CaCl2 was titrated to form the complex.
# PS.Ca.Pi complex = experiment: Mineral formation by synthetic PS.Ca.Pi complex seeded into SCL, microplate-based biomineralization assay; format: biochemical
# Method: as §1, §2
# Results are illustrated in FIGS. 9A and 9B. […] To document that the effect of avian Anx-A5 could be equally matched by human Anx-H5, the kinetics of mineral formation were examined when both avian MV and the Mg^2+-containing PS.Ca.Pi complex were seeded into SCL in the absence and presence of purified native human placental Anx H5. […]
# ACP = details: low levels of Zn^2+
# Anx-H5-containing ACP = target: T1, Anx-H5-containing ACP (Homo sapiens, UniProt P08758); experiment: Mineral formation by Anx-H5-containing ACP in SCL; format: biochemical; details: low levels (5 μM) of Zn^2+ in SCL
# T1 sequence (P08758 2-320 limits assumed): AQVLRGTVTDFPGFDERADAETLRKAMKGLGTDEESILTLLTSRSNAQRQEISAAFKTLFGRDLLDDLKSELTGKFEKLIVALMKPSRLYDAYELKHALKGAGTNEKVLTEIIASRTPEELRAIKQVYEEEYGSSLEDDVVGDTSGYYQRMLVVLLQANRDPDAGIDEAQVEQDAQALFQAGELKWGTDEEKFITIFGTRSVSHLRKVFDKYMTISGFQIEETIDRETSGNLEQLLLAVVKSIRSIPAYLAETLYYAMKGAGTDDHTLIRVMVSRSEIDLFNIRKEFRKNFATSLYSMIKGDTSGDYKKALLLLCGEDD
# Anx-A5 Ca^2+ channel = target: T2, Anx-A5 Ca^2+ channel (Gallus gallus, UniProt P17153); experiment: Ca^2+ channel currents of MV or purified Anx-A5 fused with planar PS.PE (1:1) bilayers; format: biochemical, avian; details: MV or purified Anx-A5 in planar PS.PE (1:1) bilayers
# T2 construct: from tissue; host or cells: avian cartilage
# Method: To determine if the inhibitory effect of Zn^2+ on MV calcification was due to interaction with Anx-A5, experiments were conducted to investigate the nature of the MV Ca^2+ channel. […] When MVs or purified Anx-A5 were fused with planar PS.PE (1:1) bilayers, a multiconductance Ca^2+ channel was evident, as shown in FIG. 6A. […] The finding that Anx-A5 Ca^2+ channel gating is modulated by Zn^2+ raised the possibility that it may be an important regulator of MV Ca^2+ channel activity in vivo. Thus, it was desirable to determine how Anx-5 helps promote MV mineralization and how Zn^2+ affects the structure of Anx-A5.
# [2] = target: T3, Anx-H5.PS.Ca.Pi complexes (Homo sapiens, UniProt P08758); experiment: Kinetics of mineralization of Anx-H5 containing nucleators with or without phosphoserine; format: biochemical; details: 100 μM phosphoserine; both Anx-H5-containing ACP and PS.Ca.Pi complexes
# T3 sequence (P08758 2-320 limits assumed): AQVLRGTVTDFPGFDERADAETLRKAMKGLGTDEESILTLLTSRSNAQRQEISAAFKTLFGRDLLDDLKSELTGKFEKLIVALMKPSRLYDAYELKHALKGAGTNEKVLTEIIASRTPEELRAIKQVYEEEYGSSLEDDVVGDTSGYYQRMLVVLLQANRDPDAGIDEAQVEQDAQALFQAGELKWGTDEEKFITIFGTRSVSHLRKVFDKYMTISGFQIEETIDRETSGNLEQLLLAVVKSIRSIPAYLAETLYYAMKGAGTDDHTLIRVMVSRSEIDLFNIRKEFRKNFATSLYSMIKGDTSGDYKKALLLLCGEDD
# From the text: Phosphoserine was examined as a test compound. Phosphoserine can occupy PS head-group binding sites in Anx-H5, acting as a competitive inhibitor of PS binding. […] Since Anx-H5 trimer formation occurs only on phospholipid bilayers, phosphoserine competes for PS binding sites in Anx-H5, interfering with trimer formation, and thereby inhibiting de novo mineralization.
# FIG. 18 illustrates the results of in vitro assays showing the delay of onset of mineralization of Anx-H5 containing nucleators by incorporation of O-phospho-L-serine
molecule,measurement,setting,value
Anx-H5: pure native placental human annexin 5,ability of MV to induce and propagate mineral formation,matrix vesicles (MV); Anx-H5 added to freshly isolated MV,significantly enhanced
same,effect on PS.PE.Ca.Pi-induced mineralization,[1]; Anx-H5 incorporated into PS.PE.Ca.Pi complex,overcome this inhibitory effect of PE
same,effect on mineral formation of incorporation into PS.Ca.Pi complex,[1]; complexes about 50 μg/ml in SCL,obvious stimulatory effect
same,mineral formation induced by protein alone,"PS.Ca.Pi complex; Anx-H5 by itself added to SCL, without PS",failed to induce any mineral formation
"[Zn+2] [Zn^2+, zinc]",MV mineralization,matrix vesicles (MV); low levels of Zn^2+ (5 μM) in SCL,completely inhibit
same,ACP-induced mineral formation,ACP,weak inhibition
same,mineral formation by Anx-H5-containing ACP,Anx-H5-containing ACP,marked inhibition
same,Ca^2+ currents,Anx-A5 Ca^2+ channel,blocked
"N[C@@H](COP(=O)(O)O)C(=O)O [phosphoserine, O-phospho-L-serine]",time needed for onset of mineralization,[2],almost tripling
"c1cnc2c(c1)ccc1cccnc12 [1,10-phenanthroline, reference compound]",ability of Zn^2+-inhibited MV to mineralize,matrix vesicles (MV); metal ion chelator added to Zn^2+-inhibited MV,restored the ability to mineralize
"phosphatidylethanolamine [PE, reference compound]",ability of PS.Ca.Pi to nucleate mineral formation,[1]; equimolar amounts incorporated into PS.Ca.Pi (PS.PE 1:1),profound inhibition
B1,activation of PS.Ca.Pi complex,PS.Ca.Pi complex; complex prepared from Mg^2+-containing phosphate buffer,synergistically activates
